Source: USRE47193E1, “Selectively substituted quinoline compounds” (EISAI R&D MANAGEMENT CO., LTD., priority 2013, dated 2019)
pIC50: −log10 of the molar value.

Columns and labels:
Human TLR7/8 = assay: Human PBMC cell-based assay, TLR7/8 stimulus (RNA-Ig), cytokine ELISA; settings: primary human PBMC assay, TLR7/8 potency; ligand not given; read-out: Human PBMCs IC50
Summary of the method: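 Healthy-donor human PBMC, 2×10^5 cells/well (1×10^5 in later assay), pre-treated 30 min with compound (0.1% DMSO). Stimulated 20 h at 37 °C with RNA-Ig: 26-mer U1 snRNA stem loop IV phosphorothioate RNA at 2.5 μM plus anti-ssDNA antibody (1:25 or 1 ug/ml). Supernatant cytokines by ELISA.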

Mouse Splenocytes = assay: Mouse spleen cell-based assay (R848, IL-6 ELISA); settings: BALB/c spleen cells, 370 nM R848
Method: Mouse Spleen cell-based assay. Spleens were harvested from female BALB/c mice (Jackson Labs, Bar Harbor, Me.) euthanized by CO2. A single cell suspension was obtained by passing spleens through a 40 μm an nylon cell strainer. Cells were washed twice with 50 ml PBS (Mediatech, Inc., Manassas, Va.) and red blood cells were lysed in 5 ml RBC Lysis buffer (eBioscience, Inc., San Diego, Calif.) for 5 minutes at room temperature. Cells were washed twice more in PBS and finally resuspended in supplemented RPMI-1640 at 2.5×10^6 cells/ml. Cells were plated at 100 μl/well (2.5×10^5 cells/well) in 96-well tissue culture treated plates (Falcon). Serial dilutions of compounds solubilized in 100% DMSO were added in triplicate to cells to yield a final concentration of 0.1% DMSO. Cells were incubated with compound for 30 minutes at 37° C., 5% CO2 before adding 100 μl/well of 740 nM R848 (Resiquimod; GLSynthesis, Worcester, Mass.) in complete media for a final concentration of 370 nM R848. Cells were incubated for 20 hours at 37° C., 5% CO2. Culture supernatants were collected, and levels of IL-6 were assessed by standard ELISA procedure according to the manufacturer's recommended protocol (BD Biosciences, Inc., San Diego, Calif.).

mouse TLR7 = target: T1, mouse TLR7 (Mus musculus, UniProt P58681); assay: Short-term in vivo (STIV) assay: oral dosing, R848 s.c., plasma IL-6; set-up: female BALB/c mice (Jackson Labs, Bar Harbor, Me.) were dosed by oral gavage; tissue Jackson Labs; host or cells: living female BALB/c mice; plasma IL-6 after s.c. R848
T1 sequence (P58681 27-1050): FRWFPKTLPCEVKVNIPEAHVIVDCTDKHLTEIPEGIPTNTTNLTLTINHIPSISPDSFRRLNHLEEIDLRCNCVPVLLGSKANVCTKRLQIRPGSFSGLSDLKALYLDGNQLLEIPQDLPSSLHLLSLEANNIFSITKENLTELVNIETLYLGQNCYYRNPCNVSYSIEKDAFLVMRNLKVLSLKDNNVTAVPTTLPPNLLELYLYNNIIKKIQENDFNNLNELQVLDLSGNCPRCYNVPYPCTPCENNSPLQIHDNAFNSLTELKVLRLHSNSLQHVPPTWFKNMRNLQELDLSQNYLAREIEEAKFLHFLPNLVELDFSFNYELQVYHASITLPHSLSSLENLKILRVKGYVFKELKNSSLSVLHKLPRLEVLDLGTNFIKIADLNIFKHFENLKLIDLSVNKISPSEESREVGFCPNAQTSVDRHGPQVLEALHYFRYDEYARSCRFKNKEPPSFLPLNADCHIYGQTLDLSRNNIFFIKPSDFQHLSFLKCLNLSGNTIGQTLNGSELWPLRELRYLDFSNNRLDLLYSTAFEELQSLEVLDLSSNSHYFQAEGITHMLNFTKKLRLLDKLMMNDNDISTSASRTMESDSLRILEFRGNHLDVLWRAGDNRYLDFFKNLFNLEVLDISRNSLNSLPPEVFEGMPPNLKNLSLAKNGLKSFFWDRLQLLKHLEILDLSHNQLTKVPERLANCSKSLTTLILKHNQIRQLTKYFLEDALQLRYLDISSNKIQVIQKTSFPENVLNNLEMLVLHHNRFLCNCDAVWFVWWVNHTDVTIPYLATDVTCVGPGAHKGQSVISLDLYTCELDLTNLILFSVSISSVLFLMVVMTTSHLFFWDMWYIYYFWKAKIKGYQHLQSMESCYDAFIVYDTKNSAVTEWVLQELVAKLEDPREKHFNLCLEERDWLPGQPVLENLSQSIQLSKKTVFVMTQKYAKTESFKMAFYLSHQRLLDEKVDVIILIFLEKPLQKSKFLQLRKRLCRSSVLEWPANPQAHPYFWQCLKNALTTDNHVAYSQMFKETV
Summary of the method: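 Female BALB/c mice (6–8 weeks) dosed orally with compound in 0.5% aqueous methyl-cellulose at 33, 100 or 300 mg/kg; at various times afterwards given 15 ug R848 s.c. to stimulate TLR7. Plasma IL-6 measured by ELISA to gauge potency and duration of action.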

SMILES | pIC50 (Human TLR7/8) | pIC50 (Mouse Splenocytes; Mus musculus, Splenocyte) | % Suppression vs. Vehicle (mouse TLR7; 6 h, 33 mg/kg) [%] | % Suppression vs. Vehicle (mouse TLR7; 6 h, 100 mg/kg) [%] | % Suppression vs. Vehicle (mouse TLR7; 19 h, 100 mg/kg) [%] | other results
CC1CN(c2ccc(C#N)c3ncccc23)CC(CN2CCNCC2C)O1 (centres unmarked) [ER-887268] | 8.30 | 5.67 | 98 | 99 | 95 | % Suppression vs. Vehicle (mouse TLR7; 6 h, 11 mg/kg): 80%; % Suppression vs. Vehicle (mouse TLR7; 19 h, 11 mg/kg): 25%; % Suppression vs. Vehicle (mouse TLR7; 19 h, 33 mg/kg): 63%
CC1CN(c2ccc(C#N)c3ncccc23)CC(CN2CC(N3CCCC3)C2)O1 (centres unmarked) [ER-889469] | 7.89 | 7.01 | 100 | 100 | 73 | % Suppression vs. Vehicle (mouse TLR7; 3 h, 33 mg/kg): 100%; % Suppression vs. Vehicle (mouse TLR7; 3 h, 100 mg/kg): 100%
C[C@@H]1CN(c2ccc(C#N)c3ncccc23)C[C@H](CN2CCCN(C)CC2)O1 [ER-889601] | – | – | 95 | 90 | 96 | pIC50 (Mouse Splenocytes): 6.75; % Suppression vs. Vehicle (mouse TLR7; 3 h, 100 mg/kg): 96%
CCNC(=O)C1CCN(CC2CN(c3ccc(C#N)c4ncccc34)CC(C)O2)CC1 (centres unmarked) [ER-895204] | 7.64 | 7.29 | 98 | – | – | % Suppression vs. Vehicle (mouse TLR7; 13 h, 33 mg/kg): 22%; % Suppression vs. Vehicle (mouse TLR7; 13 h, 100 mg/kg): 43%; % Suppression vs. Vehicle (mouse TLR7; 13 h, 300 mg/kg): 99%; % Suppression vs. Vehicle (mouse TLR7; 24 h, 33 mg/kg): 39%; % Suppression vs. Vehicle (mouse TLR7; 24 h, 100 mg/kg): 39%; % Suppression vs. Vehicle (mouse TLR7; 24 h, 300 mg/kg): 78%
C[C@@H]1CN(c2ccc(C#N)c3ncccc23)C[C@H](CN2CC[C@H](N3CCCC3)C2)O1 [ER-893881] | 8.05 | 6.57 | 82 | 99 | – | % Suppression vs. Vehicle (mouse TLR7; 3 h, 33 mg/kg): 95%; % Suppression vs. Vehicle (mouse TLR7; 13 h, 33 mg/kg): 0%; % Suppression vs. Vehicle (mouse TLR7; 13 h, 100 mg/kg): 19%
CC1CN(c2ccc(C#N)c3ncccc23)CC(CN2CC(N3CCCCC3)C2)O1 (centres unmarked) [ER-889470] | 7.92 | 6.82 | 96 | 100 | 78 | % Suppression vs. Vehicle (mouse TLR7; 3 h, 33 mg/kg): 100%; % Suppression vs. Vehicle (mouse TLR7; 3 h, 100 mg/kg): 98%
CC1CN(c2ccc(C#N)c3ncccc23)CC(CN2CCN(C)C(C)(C)C2)O1 (centres unmarked) [ER-894656] | 8.15 | 7.64 | – | – | – | –
CC1CN(c2ccc(C#N)c3ncccc23)CC(CN2CCC(N3CCOCC3)CC2)O1 (centres unmarked) [ER-890093] | 7.66 | 7.06 | 92 | 95 | – | % Suppression vs. Vehicle (mouse TLR7; 3 h, 100 mg/kg): 92%; % Suppression vs. Vehicle (mouse TLR7; 13 h, 33 mg/kg): 98%; % Suppression vs. Vehicle (mouse TLR7; 13 h, 100 mg/kg): 100%
CC1CN(c2ccc(C#N)c3ncccc23)CC(CN2CCC(NS(C)(=O)=O)CC2)O1 (centres unmarked) [ER-893948] | 6.82 | 6.38 | – | – | – | –
CC1CN(c2ccc(C#N)c3ncccc23)CC(CN2CCC(N3CCCCC3)C2)O1.Cl.Cl (centres unmarked) [ER-890311] | – | – | – | – | – | pIC50 (Mouse Splenocytes): 6.37; % Suppression vs. Vehicle (mouse TLR7; 3 h, 33 mg/kg): 88%; % Suppression vs. Vehicle (mouse TLR7; 19 h, 3.67 mg/kg): 0%; % Suppression vs. Vehicle (mouse TLR7; 19 h, 11 mg/kg): 0%; % Suppression vs. Vehicle (mouse TLR7; 19 h, 33 mg/kg): 0%
C[C@@H]1CN(c2ccc(C#N)c3ncccc23)C[C@H](CN2CCNC(C)(C)C2)O1 [ER-894655] | 8.30 | 7.08 | – | – | – | –
C[C@@H]1CN(c2ccc(C#N)c3ncccc23)C[C@H](CN2CCC(N)CC2)O1 [ER-888070] | 8.52 | 7.12 | 88 | 100 | 90 | % Suppression vs. Vehicle (mouse TLR7; 6 h, 300 mg/kg): 100%; % Suppression vs. Vehicle (mouse TLR7; 19 h, 33 mg/kg): 70%; % Suppression vs. Vehicle (mouse TLR7; 19 h, 300 mg/kg): 99%
CC(=O)NC1CN(C[C@H]2CN(c3ccc(C#N)c4ncccc34)C[C@@H](C)O2)C1 [ER-894152] | 6.76 | 6.18 | – | – | – | –
C[C@@H]1CN(c2ccc(C#N)c3ncccc23)C[C@H](CN2CCC(N3CCCC3)CC2)O1 [ER-888480] | 9.00 | – | 100 | 100 | 98 | pIC50 (Mouse Splenocytes): 7.06; % Suppression vs. Vehicle (mouse TLR7; 6 h, 11 mg/kg): 85%; % Suppression vs. Vehicle (mouse TLR7; 19 h, 11 mg/kg): 63%; % Suppression vs. Vehicle (mouse TLR7; 19 h, 33 mg/kg): 89%
CC1CN(c2ccc(C#N)c3ncccc23)CC(COc2ncccn2)O1 (centres unmarked) [ER-895325] | 7.59 | 6.92 | – | – | – | –
C[C@@H]1CN(c2ccc(C#N)c3ncccc23)C[C@H](CN2CCN(C)[C@@H](C)C2)O1 [ER-890831] | 9.00 | – | – | – | – | pIC50 (Mouse Splenocytes): 6.77
